We go through one substance from US20140377216A1, “ANTICANCER FUSION PROTEIN” (ADAMED SP. Z.O.O., priority 2011, published 2014).

The subject of experiment [1] is multidrug resistant human uterine sarcoma MES-SA/Dx5. Nature of the experiment: Multidrug resistant uterine sarcoma model: MES-SA/Dx5 xenograft. The class given is in vivo, Crl:SHO-PrkdcscidHrhr mice. The following applies: 10 mg/kg i.v. 6 times every second day, 35 day. As for the experimental part:
(§1) Tumor size was measured using electronic calliper, tumor volume was calculated using the formula: (a^2×b)/2, where a=shorter diagonal of the tumor (mm) and b=longer diagonal of the tumor (mm). Inhibition of tumor growth was calculated using the formula:
(§2) TGI[%](Tumor growth inhibition)=(WT/WC)×100−100%
(§3) wherein WT is the average tumor volume in the treatment group, and WC is the average tumor volume in the control group.
On day 0 Crl:SHO-Prkdc^scidHr^hr mice were grafted subcutaneously (s.c.) in the right side with 7×10^6 of MES-SA/Dx5 cells suspended in 0.1 ml of the mixture HBSS:Matrigel 10:1 using syringe with a needle 0.5×25 mm (Bogmark). On the 19 day of the experiment mice were randomized to obtain the average size of tumors in the group of −180 mm^3 and assigned to treatment groups. The treatment groups were administered with the preparation of fusion protein of the invention of Ex. 11^a (30 mg/kg) and rhTRAIL114-281 (10 mg/kg) as a comparison against formulation buffer (19 mM NaH2PO4, 81 mM Na2HPO4, 50 mM NaCl, 5 mM glutathione, 0.1 mM ZnCl2, 10% glycerol, pH 7.4) as a control. Preparations were administered intravenously (i.v.) 6 times once daily every second day. On the 35 day of the experiment mice were sacrificed by disruption of spinal cord.

Another experiment has as its system human colon cancer SW620. Nature of the experiment: Colon cancer model, Experiment B: SW620 xenograft. The following applies: 30 mg/kg i.v. 6 times every second day, 31 day. The class given is in vivo, Crl:SHO-PrkdcscidHrhr mice. As for the experimental part: as §1, §2, §3
On day 0 Crl:SHO-Prkdc^scidHr^hr mice were grafted subcutaneously (s.c.) in the right side with 5×10^6 of SW620 cells suspended in 0.1 ml of the mixture HBSS:Matrigel 3:1 using syringe with a needle 0.5×25 mm (Bogmark). On the 17 day of the experiment mice were randomized to obtain the average size of tumors in the group of ˜320 mm^3 and assigned to treatment groups. The treatment groups were administered with the preparation of fusion protein of the invention of Ex. 16^a (20 mg/kg) and rhTRAIL114-281 (30 mg/kg) as a comparison against formulation buffer (19 mM NaH2PO4, 81 mM Na2HPO4, 50 mM NaCl, 5 mM glutathione, 0.1 mM ZnCl2, 10% glycerol, pH 7.4) as a control. The preparations were administered intravenously (i.v) 6 times once daily every second day. On the 31 day of the experiment mice were sacrificed by disruption of the spinal cord.

The subject of experiment [2] is human lung cancer A549. Nature of the experiment: Lung cancer model, Experiment A: A549 xenograft. Particulars: A549, Cby.Cg-foxn1(nu)/J mice; 20 mg/kg i.v. 6 times every second day; 35 day. The class given is in vivo. As to the method:
as §1, §2, §3
On day 0 Cby.Cg-foxn1(nu)/J mice were grafted subcutaneously (s.c.) in the right side with 5×10^6 of A549 cells suspended in 0.1 ml of the mixture HBSS:Matrigel 4:1 using syringe with a needle 0.5×25 mm (Bogmark). On the 19 day of the experiment mice were randomized to obtain the average size of tumors in the group of ˜75 mm3 and assigned to treatment groups. The treatment groups were administered with the preparations of fusion protein of the invention of Ex. 11^a (15 mg/kg), and rhTRAIL114-281 (20 mg/kg) as a comparison and water for injections as a control. The preparations were administered intravenously (i.v) 6 times once daily every second day. On the 35 day of the experiment mice were sacrificed by disruption of the spinal cord.

Experiment [3] concerns human lung cancer A549. Nature of the experiment: Lung cancer model, Experiment B: A549 xenograft. Type of experiment: in vivo, Crl:SHO-PrkdcscidHrhr mice. Particulars: A549, Crl:SHO mice; 20 mg/kg i.v. 6 times every second day; 34 day. As to the method: as §1, §2, §3
Experiment B. On day 0 Crl:SHO-Prkdc^scidHr^h mice were grafted subcutaneously (s.c.) in the right side with 7×10^6 of A549 cells suspended in 0.1 ml of the mixture HBSS:Matrigel 3:1 using syringe with a needle 0.5×25 mm (Bogmark). On the 17 day of the experiment mice were randomized to obtain the average size of tumors in the group of ˜100-120 mm^3 and assigned to treatment groups. The treatment groups were administered with the preparations of fusion protein of the invention of Ex. 11^a (40 mg/kg), and rhTRAIL114-281 (20 mg/kg) as a comparison against formulation buffer (19 mM NaH2PO4, 81 mM Na2HPO4, 50 mM NaCl, 5 mM glutathione, 0.1 mM ZnCl2, 10% glycerol, pH 7.4) as a control. The preparations were administered intravenously (i.v) 6 times once daily every second day. On the 34 day of the experiment mice were sacrificed by disruption of the spinal cord.

The test system of experiment [4] is human pancreas cancer PANC-1. The experiment in a line: Pancreas cancer model, Experiment A: PANC-1 xenograft. The class given is in vivo, Crl:SHO-PrkdcscidHrhr mice. The following applies: 20 mg/kg i.v. 6 times every second day, 42 day. As for the experimental part: as §1, §2, §3
On day 0 Crl:SHO-Prkdc^scidHr^hr mice were grafted subcutaneously (s.c.) in the right side with 5×10^6 of PANC-1 cells suspended in 0.1 ml of the mixture HBSS:Matrigel 3:1 using syringe with a needle 0.5×25 mm (Bogmark). On the 31 day of the experiment mice were randomized to obtain the average size of tumors in the group of ˜110 mm^3 and assigned to treatment groups. The treatment groups were administered with the preparations of fusion protein of the invention of Ex. 11^a (40 mg/kg), and rhTRAIL114-281 (20 mg/kg) as a comparison against formulation buffer (19 mM NaH2PO4, 81 mM Na2HPO4, 50 mM NaCl, 5 mM glutathione, 0.1 mM ZnCl2, 10% glycerol, pH 7.4) as a control. The preparations were administered intravenously (i.v) 6 times once daily every second day. On the 42 day of the experiment mice were sacrificed by disruption of the spinal cord.

For experiment [5], the system named is human colon cancer Colo205. The experiment in a line: Colon cancer model, Experiment C: Colo205 xenograft. Type of experiment: in vivo, Crl:SHO-PrkdcscidHrhr mice. The following applies: rhTRAIL 30 mg/kg i.v. 6 times every second day, 33 day. As to the method: as §1, §2, §3
On day 0 Crl:SHO-Prkdc^scidHr^hr mice were grafted subcutaneously (s.c.) in the right side with 5×10^6 of Colo205 cells suspended in 0.1 ml of HBSS buffer using syringe with a needle 0.5×25 mm (Bogmark). On the 13 day of the experiment mice were randomized to obtain the average size of tumors in the group of ˜115 mm^3 and assigned to treatment groups.
The treatment groups were administered with the preparations of fusion protein of the invention of Ex. 16^a (30 mg/kg), and rhTRAIL114-281 (30 mg/kg) as a comparison against formulation buffer (19 mM NaH2PO4, 81 mM Na2HPO4, 50 mM NaCl, 5 mM glutathione, 0.1 mM ZnCl2, 10% glycerol, pH 7.4) as a control. The preparations were administered intravenously (i.v) 6 times once daily every second day. On the 33 day of the experiment mice were sacrificed by disruption of spinal cord.

With “rhTRAIL114-281: recombinant human soluble TRAIL, amino acids 114-281 of hTRAIL, used as comparative reference”, the “TGI (tumor growth inhibition) relative to the control” value in experiment [1] is given as 29%; in the experiment with human colon cancer SW620, −9%; in the experiment with human lung cancer A549 [2], 0%; in the experiment with human lung cancer A549 [3], 21.8%; in experiment [4], 26%; in experiment [5] it was 18.8%.
